Data on four compounds can be found in ChEMBL document CHEMBL1201862, “PubChem BioAssay data set” (2004).

Active and inactive are the calls of the source.

Usually IC50 stands for the point on the concentration scale where inhibition reaches its midpoint. As usually defined, the Ki is a dissociation constant, usually derived from enzyme kinetics or from competition with a known ligand.

For test [1], the target named is T1, Sentrin-specific protease 8 (Homo sapiens, UniProt Q96LD8).
T1 sequence (Q96LD8 whole entry): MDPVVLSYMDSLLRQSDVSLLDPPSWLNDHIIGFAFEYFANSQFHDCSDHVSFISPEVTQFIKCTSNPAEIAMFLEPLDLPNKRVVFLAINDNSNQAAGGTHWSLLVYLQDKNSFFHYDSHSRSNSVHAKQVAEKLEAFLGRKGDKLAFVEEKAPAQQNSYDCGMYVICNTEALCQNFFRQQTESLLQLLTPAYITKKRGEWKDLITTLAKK
Type of test: functional.

Test [2] concerns the target T2, Sentrin-specific protease 6 (Homo sapiens, UniProt Q9GZR1).
T2 sequence (Q9GZR1 whole entry): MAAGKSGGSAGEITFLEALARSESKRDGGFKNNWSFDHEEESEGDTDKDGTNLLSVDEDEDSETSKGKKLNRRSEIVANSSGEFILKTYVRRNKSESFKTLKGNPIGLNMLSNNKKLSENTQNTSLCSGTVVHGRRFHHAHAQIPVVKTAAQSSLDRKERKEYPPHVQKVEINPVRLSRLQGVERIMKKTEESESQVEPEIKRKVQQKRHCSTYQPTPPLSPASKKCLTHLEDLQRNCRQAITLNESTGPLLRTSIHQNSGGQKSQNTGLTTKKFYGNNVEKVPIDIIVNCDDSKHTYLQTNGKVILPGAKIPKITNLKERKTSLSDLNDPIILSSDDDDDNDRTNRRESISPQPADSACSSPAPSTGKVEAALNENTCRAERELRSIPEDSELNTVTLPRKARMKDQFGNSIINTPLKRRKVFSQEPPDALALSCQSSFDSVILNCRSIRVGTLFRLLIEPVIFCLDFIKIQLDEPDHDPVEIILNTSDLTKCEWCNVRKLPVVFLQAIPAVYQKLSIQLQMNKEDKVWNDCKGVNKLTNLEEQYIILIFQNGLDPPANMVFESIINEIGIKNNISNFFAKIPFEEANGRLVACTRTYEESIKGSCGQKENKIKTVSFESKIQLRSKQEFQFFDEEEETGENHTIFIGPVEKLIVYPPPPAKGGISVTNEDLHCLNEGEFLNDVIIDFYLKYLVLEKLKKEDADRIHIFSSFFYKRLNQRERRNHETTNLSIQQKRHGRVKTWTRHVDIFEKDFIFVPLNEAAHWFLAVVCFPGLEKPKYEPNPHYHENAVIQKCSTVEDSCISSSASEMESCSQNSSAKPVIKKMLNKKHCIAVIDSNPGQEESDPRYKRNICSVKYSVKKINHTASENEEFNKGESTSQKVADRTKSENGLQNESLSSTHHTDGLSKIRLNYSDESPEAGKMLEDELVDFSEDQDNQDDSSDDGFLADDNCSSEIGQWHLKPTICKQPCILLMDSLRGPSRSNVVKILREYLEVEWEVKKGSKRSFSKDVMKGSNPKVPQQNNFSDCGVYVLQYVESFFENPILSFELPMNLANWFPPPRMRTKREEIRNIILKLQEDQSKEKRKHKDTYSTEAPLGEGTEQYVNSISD
Description: SAR Analysis of small molecule inhibitors of Sentrin-specific protease 6 (SENP6) using a Luminescent assay. [Related pubchem assays (depositor defined):AID2582, AID2599]. Type of test: functional.

Test [3] addresses T3, Dual specificity protein phosphatase 6 (Rattus norvegicus, UniProt Q64346).
T3 sequence (Q64346 whole entry): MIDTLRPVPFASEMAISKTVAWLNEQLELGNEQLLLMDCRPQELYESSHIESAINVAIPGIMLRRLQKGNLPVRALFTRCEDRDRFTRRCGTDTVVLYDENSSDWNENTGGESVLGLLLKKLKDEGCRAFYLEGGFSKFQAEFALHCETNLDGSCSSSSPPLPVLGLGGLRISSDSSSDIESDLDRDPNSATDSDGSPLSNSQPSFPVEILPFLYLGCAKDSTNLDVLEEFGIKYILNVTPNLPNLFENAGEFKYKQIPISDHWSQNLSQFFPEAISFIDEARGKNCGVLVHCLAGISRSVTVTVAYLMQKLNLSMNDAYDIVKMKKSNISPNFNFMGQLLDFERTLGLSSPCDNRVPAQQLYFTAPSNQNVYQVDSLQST

Test [4] deals with MAP kinase-interacting serine/threonine-protein kinase 2 (Homo sapiens, UniProt Q9HBH9). The test is classed as functional.
Test [5] concerns the target Serine/threonine-protein kinase Nek4 (Homo sapiens, UniProt P51957). The test is classed as functional.
Test [6] addresses Serine/threonine-protein kinase PAK 1 (Homo sapiens, UniProt Q13153). Type of test: functional.
Test [7] has as its target Vascular endothelial growth factor receptor 1 (Homo sapiens, UniProt P17948). The test is classed as functional.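 Note: measured within a kinome-wide profiling panel, FLT1 as the panel member.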
The target of another test is T4, Leucine aminopeptidase (Plasmodium falciparum 3D7, UniProt Q8IL11).
T4 sequence (Q8IL11 whole entry): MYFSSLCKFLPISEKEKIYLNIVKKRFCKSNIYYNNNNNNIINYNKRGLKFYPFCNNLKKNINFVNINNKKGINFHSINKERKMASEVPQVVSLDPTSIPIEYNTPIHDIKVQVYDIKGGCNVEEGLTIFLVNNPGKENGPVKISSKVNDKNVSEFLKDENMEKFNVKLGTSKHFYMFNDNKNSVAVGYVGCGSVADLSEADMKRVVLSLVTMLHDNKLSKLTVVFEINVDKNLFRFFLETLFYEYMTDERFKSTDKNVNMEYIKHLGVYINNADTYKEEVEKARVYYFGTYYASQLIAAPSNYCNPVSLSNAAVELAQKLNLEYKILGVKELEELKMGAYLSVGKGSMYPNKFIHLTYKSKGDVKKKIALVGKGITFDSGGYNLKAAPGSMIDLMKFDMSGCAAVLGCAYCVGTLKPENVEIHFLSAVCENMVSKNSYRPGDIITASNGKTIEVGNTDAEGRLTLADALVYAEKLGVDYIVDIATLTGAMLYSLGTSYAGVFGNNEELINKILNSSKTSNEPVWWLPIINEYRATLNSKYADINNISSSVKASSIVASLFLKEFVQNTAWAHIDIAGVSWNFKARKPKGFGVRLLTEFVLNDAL
Description: P. falciparum M17LAP inhibitors, primary screen, biochemical, fluorogenic H-Leu-NHMec substrate, 1536-well (AID 1619). The test is classed as functional.

Vascular endothelial growth factor receptor 1, sequence (P17948 whole entry): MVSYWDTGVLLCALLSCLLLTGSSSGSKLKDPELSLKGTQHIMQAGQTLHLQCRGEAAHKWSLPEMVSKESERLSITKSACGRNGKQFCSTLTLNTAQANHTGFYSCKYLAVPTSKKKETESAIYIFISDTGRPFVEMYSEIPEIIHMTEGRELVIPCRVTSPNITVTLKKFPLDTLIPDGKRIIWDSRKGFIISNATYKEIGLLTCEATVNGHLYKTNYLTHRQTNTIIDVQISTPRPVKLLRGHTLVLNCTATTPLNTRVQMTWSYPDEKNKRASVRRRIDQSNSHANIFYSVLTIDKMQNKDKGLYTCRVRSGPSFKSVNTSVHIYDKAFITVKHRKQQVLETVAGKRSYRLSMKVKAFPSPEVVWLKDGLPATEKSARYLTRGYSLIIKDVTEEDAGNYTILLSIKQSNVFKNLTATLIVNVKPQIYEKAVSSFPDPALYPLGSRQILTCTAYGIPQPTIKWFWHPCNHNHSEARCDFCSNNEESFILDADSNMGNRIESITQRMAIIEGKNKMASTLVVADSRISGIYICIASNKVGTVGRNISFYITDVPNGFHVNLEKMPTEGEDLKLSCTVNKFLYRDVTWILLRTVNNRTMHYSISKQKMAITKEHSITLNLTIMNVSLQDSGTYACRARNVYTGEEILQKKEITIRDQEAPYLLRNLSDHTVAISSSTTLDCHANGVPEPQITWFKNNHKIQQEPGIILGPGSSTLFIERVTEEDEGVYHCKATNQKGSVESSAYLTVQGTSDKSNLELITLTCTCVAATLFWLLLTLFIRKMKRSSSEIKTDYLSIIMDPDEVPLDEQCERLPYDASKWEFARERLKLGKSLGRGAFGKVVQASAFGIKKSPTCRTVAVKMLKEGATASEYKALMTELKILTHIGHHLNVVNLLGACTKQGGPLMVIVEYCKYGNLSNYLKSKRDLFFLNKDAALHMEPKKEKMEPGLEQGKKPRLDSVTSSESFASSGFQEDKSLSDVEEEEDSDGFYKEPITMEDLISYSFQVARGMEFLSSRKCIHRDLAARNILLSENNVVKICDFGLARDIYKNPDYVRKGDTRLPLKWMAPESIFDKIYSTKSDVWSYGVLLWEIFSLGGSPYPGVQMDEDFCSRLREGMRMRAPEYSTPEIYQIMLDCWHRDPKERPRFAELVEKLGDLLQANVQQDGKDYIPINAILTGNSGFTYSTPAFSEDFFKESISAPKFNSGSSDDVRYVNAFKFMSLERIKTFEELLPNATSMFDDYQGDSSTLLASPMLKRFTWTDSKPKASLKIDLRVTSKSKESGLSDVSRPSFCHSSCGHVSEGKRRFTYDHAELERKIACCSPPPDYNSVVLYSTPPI
MAP kinase-interacting serine/threonine-protein kinase 2, sequence (Q9HBH9 whole entry): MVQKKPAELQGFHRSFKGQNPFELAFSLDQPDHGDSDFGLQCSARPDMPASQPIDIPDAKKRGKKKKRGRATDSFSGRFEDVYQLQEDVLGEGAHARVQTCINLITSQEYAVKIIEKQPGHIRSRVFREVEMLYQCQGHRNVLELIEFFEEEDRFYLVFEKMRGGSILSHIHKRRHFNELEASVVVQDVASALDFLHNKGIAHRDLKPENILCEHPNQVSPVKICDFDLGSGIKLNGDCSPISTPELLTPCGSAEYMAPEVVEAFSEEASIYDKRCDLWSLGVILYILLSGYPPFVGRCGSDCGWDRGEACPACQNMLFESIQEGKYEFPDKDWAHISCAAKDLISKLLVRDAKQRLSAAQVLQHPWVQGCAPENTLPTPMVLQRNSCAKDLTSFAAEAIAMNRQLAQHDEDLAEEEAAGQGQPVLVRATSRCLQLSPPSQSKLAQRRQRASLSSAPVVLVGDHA
Serine/threonine-protein kinase PAK 1, sequence (Q13153 whole entry): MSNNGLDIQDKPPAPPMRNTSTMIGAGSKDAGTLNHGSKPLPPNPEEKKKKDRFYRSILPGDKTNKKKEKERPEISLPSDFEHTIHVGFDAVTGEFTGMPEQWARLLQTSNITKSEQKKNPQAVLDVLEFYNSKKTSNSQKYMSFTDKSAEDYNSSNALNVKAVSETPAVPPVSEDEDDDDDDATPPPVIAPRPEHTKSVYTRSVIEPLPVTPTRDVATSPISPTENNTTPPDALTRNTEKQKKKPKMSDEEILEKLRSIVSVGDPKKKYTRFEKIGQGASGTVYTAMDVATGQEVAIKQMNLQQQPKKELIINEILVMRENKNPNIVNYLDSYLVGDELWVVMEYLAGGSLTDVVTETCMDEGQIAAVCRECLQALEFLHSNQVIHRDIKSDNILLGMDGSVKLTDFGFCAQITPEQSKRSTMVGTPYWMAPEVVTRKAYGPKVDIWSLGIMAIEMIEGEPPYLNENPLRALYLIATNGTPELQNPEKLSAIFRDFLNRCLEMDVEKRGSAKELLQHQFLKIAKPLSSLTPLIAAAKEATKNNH
Serine/threonine-protein kinase Nek4, sequence (P51957 whole entry): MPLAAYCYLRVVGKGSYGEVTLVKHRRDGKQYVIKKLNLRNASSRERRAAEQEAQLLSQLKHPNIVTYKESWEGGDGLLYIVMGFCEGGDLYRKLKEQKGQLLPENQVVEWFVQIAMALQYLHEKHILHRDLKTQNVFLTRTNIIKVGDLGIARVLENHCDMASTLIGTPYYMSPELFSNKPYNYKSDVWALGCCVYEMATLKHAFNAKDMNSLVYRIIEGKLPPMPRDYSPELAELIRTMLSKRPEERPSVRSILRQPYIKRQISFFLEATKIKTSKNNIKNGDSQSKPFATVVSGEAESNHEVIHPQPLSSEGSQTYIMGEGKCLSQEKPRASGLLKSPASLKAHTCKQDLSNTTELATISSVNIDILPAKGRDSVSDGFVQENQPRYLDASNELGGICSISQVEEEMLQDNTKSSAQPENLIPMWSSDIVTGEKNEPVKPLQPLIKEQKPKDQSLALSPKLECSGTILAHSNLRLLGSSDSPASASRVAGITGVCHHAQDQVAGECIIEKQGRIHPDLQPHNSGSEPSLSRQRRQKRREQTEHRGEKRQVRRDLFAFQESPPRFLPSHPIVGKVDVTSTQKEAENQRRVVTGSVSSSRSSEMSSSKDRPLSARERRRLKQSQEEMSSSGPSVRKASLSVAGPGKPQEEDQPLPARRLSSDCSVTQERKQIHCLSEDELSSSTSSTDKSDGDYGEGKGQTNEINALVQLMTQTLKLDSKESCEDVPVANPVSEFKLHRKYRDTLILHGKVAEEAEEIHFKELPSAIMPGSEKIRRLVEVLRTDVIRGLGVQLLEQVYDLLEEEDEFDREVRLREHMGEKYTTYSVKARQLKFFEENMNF

As to `O=C(CCc1ccccc1)NNc1cc(N2CCCCC2)nc(N2CCCCC2)n1`, the IC50 is 605 nM (active) in test [1] and 35700 nM (active) in test [2].

Consider `O=C(O)C1Nc2c(O)cc(Cl)c([N+](=O)[O-])c2C2C=CCC12` (stereo not drawn), for which the IC50 in test [3] was 36800 nM (active).

For `Cc1n[nH]c2ccc(-c3cncc(OCC(N)Cc4cccc(Cl)c4)c3)cc12` (stereo not drawn), the Ki is 316 nM (active) in test [4], 251 nM (active) in test [5], 631 nM (active) in test [6] and > 398 nM (inactive) in test [7].

Take `O=C1N=C(NS(=O)(=O)Cc2ccccc2)S/C1=C1\C(=O)Nc2ccccc21`: the 50% inhibitory concentration (IC50) at Leucine aminopeptidase is 26700 nM (active).
